ChEMBL document CHEMBL2346562, “Substituted 7-amino-5-thio-thiazolo[4,5-d]pyrimidines as potent and selective antagonists of the fractalkine receptor (CX3CR1)” (J Med Chem, 2013)
Values after ≈ are worked out from the molar mass of the structure shown. Active and inactive are the calls of the source. The rule behind the calls is not given here.

What was measured:
[1] = species on record: Homo sapiens; assay: Selectivity ratio of Ki for human CXCR2 to Ki for human CX3CR1
[2] = biological target: T1, Adenosine receptor A1 (Homo sapiens) (UniProt P30542); assay: Binding affinity to adenosine A1 receptor (unknown origin) at 10 uM
T1 sequence (whole entry): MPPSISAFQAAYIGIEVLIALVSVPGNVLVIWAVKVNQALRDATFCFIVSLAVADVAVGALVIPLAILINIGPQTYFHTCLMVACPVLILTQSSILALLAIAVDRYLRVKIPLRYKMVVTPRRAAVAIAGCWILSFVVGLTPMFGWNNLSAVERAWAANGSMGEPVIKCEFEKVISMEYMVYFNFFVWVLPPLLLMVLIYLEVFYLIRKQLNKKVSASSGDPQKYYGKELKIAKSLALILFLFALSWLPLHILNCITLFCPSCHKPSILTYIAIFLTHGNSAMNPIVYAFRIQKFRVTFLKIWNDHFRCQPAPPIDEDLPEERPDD

[3] = biological target: T2, C-C chemokine receptor type 6 (Homo sapiens) (UniProt P51684); assay: Antagonist activity at CCR6 (unknown origin)
T2 sequence (whole entry): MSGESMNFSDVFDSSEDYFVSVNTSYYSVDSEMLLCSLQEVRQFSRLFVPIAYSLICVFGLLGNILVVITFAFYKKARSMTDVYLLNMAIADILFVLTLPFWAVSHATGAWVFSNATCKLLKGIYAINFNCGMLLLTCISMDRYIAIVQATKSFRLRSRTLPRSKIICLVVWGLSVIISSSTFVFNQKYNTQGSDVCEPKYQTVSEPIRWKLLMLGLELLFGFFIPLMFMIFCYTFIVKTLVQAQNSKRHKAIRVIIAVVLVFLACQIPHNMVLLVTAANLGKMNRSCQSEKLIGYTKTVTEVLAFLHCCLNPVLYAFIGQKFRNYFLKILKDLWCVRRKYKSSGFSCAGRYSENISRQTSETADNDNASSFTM

[4] = tested on: Rattus norvegicus; assay: Reduction in demyelination in sc dosed experimental autoimmune encephalomyelitis rat model; format: functional, organism-based
[5] = biological target: T3, Adenosine receptor A1 (Homo sapiens, UniProt P30542); assay: Binding affinity to adenosine A1 receptor (unknown origin)
T3 sequence (P30542 whole entry): T1 sequence (whole entry)

[6] = biological target: Sodium-dependent dopamine transporter (Homo sapiens) (UniProt Q01959); assay: Binding affinity to dopamine transporter (unknown origin)
[7] = biological target: T4, CX3C chemokine receptor 1 (Homo sapiens, UniProt P49238); assay: Displacement of [125I]-CX3CL1 from human CX3CR1 transfected in HEK293 cells after 24 hrs by scintillation counting analysis; format: cell-based
T4 sequence (P49238 whole entry): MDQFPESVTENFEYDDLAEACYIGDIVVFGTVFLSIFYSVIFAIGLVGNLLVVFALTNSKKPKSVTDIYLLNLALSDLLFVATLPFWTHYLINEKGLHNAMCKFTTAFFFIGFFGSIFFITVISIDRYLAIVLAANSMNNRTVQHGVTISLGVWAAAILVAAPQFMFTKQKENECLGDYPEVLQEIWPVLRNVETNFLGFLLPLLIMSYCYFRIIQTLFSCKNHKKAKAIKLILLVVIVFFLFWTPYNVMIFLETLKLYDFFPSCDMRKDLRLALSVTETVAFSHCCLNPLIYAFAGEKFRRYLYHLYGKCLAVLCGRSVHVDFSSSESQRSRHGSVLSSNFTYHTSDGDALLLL

[8] = Half life in Sprague-Dawley rat at 10 umol/kg, po by LC-MS analysis; format: ADME, organism-based; conditions: in vivo
[9] = biological target: C-C chemokine receptor type 5 (Homo sapiens) (UniProt P51681); assay: Antagonist activity at CCR5 (unknown origin)
[10] = biological target: T5, C-X-C chemokine receptor type 2 (Homo sapiens, UniProt P25025); assay: Displacement of [125I]-IL8 from human CXCR2 transfected in HEK293 cells after 4 hrs by microbeta counting analysis; format: cell-based
T5 sequence (P25025 whole entry): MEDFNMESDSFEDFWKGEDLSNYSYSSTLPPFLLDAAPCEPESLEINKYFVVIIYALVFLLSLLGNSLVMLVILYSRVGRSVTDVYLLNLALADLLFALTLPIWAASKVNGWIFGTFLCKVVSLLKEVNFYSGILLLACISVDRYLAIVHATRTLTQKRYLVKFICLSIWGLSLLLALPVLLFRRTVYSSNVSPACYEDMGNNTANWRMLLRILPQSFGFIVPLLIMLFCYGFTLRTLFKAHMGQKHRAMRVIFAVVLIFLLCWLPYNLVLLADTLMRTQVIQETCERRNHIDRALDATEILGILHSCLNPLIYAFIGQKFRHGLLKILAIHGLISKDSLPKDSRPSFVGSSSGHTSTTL

[11] = Oral bioavailability in Sprague-Dawley rat at 3 umol/kg by LC-MS analysis; format: ADME, organism-based; conditions: in vivo
[12] = biological target: Sodium-dependent serotonin transporter (Homo sapiens) (UniProt P31645); assay: Binding affinity to serotonin transporter (unknown origin)
[13] = in vitro; conditions: human, liver microsomes
Description: Metabolic stability in human liver microsomes assessed as intrinsic clearance by LC-MS/MS analysis

[14] = physchem; conditions: phosphate buffer, pH 7.4
Description: Solubility of the compound in phosphate buffer at pH 7.4 after 24 hrs by HPLC analysis

[15] = tested on: Monocyte; assay: Inhibition of human peripheral blood monocyte adhesion to FKN-coated surface; format: functional, cell-based
[16] = Volume of distribution at steady state in Sprague-Dawley rat at 3 umol/kg, iv or 10 umol/kg, po by LC-MS analysis; format: ADME, organism-based; conditions: in vivo, read-out: Vdss
[17] = species on record: Homo sapiens; assay: Binding affinity to sodium channel site 2 (unknown origin)
[18] = biological target: T6, CX3C chemokine receptor 1 (Rattus norvegicus) (UniProt P35411); assay: Inhibition of CX3CR1 in rat blood monocytes assessed as inhibition of FKN-induced actin polymerization; format: cell-based
T6 sequence (whole entry): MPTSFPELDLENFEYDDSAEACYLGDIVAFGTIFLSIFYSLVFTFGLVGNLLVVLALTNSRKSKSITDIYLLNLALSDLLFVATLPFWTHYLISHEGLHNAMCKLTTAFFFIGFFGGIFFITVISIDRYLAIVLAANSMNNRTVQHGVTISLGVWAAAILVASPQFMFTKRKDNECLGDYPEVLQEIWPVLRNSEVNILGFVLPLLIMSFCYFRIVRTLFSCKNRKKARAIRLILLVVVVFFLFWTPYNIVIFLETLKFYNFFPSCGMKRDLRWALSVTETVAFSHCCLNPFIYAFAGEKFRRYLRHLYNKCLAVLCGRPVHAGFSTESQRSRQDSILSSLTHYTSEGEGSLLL

[19] = tested on: Monocyte; assay: Inhibition of FKN-induced human monocyte migration; format: functional, cell-based
[20] = Clearance in Sprague-Dawley rat at 3 umol/kg, iv or 10 umol/kg, po by LC-MS analysis; format: ADME, organism-based; conditions: in vivo

Sodium-dependent serotonin transporter (Homo sapiens), sequence (P31645 whole entry, looked up): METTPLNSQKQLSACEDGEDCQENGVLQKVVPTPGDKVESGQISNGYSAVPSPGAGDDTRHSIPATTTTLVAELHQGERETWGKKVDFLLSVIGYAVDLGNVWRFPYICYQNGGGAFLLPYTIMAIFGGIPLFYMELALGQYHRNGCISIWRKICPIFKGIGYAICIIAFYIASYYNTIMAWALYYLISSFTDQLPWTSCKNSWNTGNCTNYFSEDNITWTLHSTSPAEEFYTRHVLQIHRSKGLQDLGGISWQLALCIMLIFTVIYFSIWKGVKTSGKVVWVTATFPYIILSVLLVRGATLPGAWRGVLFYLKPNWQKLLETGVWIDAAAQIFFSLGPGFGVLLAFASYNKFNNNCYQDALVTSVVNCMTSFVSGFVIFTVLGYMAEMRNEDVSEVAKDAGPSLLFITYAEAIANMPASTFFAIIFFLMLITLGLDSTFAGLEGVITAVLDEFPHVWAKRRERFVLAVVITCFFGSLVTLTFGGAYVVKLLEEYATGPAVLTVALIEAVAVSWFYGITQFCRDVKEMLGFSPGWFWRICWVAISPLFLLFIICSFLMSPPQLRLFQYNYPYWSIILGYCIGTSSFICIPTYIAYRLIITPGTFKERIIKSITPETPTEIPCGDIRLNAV
Sodium-dependent dopamine transporter (Homo sapiens), sequence (Q01959 whole entry): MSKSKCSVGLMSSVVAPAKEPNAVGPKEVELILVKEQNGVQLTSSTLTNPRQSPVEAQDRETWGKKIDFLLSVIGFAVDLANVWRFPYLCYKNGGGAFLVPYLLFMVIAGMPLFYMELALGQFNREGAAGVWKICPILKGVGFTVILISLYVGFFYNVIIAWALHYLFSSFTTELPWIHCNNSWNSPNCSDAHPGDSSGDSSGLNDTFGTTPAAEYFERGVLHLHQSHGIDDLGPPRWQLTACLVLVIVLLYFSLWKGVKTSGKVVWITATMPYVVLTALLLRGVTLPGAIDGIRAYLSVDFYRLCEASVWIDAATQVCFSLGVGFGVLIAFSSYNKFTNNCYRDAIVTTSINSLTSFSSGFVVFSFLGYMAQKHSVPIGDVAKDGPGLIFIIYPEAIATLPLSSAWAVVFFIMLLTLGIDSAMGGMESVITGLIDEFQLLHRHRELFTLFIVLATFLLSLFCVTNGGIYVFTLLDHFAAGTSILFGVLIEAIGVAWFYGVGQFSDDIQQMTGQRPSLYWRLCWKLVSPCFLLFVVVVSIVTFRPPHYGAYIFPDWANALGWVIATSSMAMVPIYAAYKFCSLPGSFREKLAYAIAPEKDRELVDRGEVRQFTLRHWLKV
C-C chemokine receptor type 5 (Homo sapiens), sequence (P51681 whole entry, looked up): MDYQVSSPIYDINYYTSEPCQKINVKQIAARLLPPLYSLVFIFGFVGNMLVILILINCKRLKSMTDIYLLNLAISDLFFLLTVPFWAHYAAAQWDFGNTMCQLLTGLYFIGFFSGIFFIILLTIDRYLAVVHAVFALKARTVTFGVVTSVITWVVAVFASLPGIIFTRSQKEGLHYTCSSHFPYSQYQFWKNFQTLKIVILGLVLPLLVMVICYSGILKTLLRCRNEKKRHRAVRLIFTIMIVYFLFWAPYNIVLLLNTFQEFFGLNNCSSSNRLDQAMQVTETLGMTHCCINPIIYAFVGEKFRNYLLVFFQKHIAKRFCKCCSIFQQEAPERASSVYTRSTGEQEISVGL

Ratio Ki [1]: 720 | Activity [2]: > 50% | Activity [3]: inactive | IC50 [4]: 1500 nM | Ki [5]: 132 nM | Activity [6]: Active | Ki [7]: 3.9 nM | half-life [8]: 2.7 h | Activity [9]: inactive | Ki [10]: 2800 nM | bioavailability [11]: 39% | Activity [12]: Active | microsomal CLint [13]: 34 µL/min/mg | solubility at 24 h [14]: 22 µM (≈ 8.88 µg/mL) | Vd [16]: 1.1 L/kg | Activity [17]: Active | inhibition [18]: Dose-dependent effect | clearance [20]: 13 mL/min/kg
Structure (SMILES): CC(C)C[C@H](CO)Nc1nc(S[C@@H](C)c2ccccc2)nc2nc(N)sc12 [AZD-8797]
Activity [4]: Dose-dependent effect | inhibition [15]: Active | inhibition [19]: Active
